Data set [1] can be described thus: Stability in terms of gelation and flocculation (clear or gel). The data set is classed as physicochemical. The settings on record: 1% zirconium oxychloride with varied arginine; incubated 1 day at 50° C., cooled to room temperature. As to the method: In some embodiments, the zirconium oxychloride cluster of the invention is stable at pH 2-6, 3-5, 3-4, 3.5-4.5 or 4-4.5, in solution, e.g., in aqueous solution.
(§1) Samples were prepared according to Table 1. Water was added to zirconium oxychloride (ZrOCl2.8H2O, MW 322.25) in a glass jar to yield a clear solution containing 1% zirconium oxychloride. Under stirring, L-arginine was slowly added to prevent clumping of arginine as well as large fluctuations in localized pH values. The solutions were incubated for 1 day at 50° C. Then the solutions were cooled to room temperature. Solid gel was formed in samples with the molar ratio of arginine to zirconium oxychloride of 2-4.
(§2) The zirconium oxychloride cluster was prepared as described in Example 1. The prepared zirconium oxychloride cluster was purified by gel permeability chromatograph (GPC). GPC column was prepared using Bio-Rad P2 gel with 5 μm particle size. Approximately 10 mL of prepared solution was filtered (0.45 μm) and loaded on the column using a HPLC pump at 0.2 mL/min. The mobile phase of the GPC chromatography was deionized water. Elution fractions were collected in intervals and monitored using SEC-RI. […] The pH of the GPC fraction (1160-1300 min) was 4.5. […] 10 g of this fraction was freeze dried to obtain purified powder for subsequent PXRD analysis.

The conditions of data set [2]: solution of zirconium oxychloride which is effective as an antiperspirant; cited from earlier work.
The nature of data set [3]: pH of the zirconium oxychloride / arginine solutions. The data set is classed as physicochemical. As to the method: as §1
A 100 g batch was prepared according to Table 2. 1% w/w zirconium oxychloride (ZrOCl2.8H2O, MW 322.25) and arginine were mixed in aqueous solution with the molar ratio of arginine to zirconium oxychloride of 1:1.
as §2

Molecules are shown by their SMILES.

In the case of `[Cl-].[Cl-].[O]=[Zr+2]` [Zr, zirconium oxychloride (ZrOCl2.8H2O, MW 322.25)], the “appearance (clear / gel)” value in data set [1] is on record as “clear”. For the same molecule, in data set [2], the pH of solution entry is “about 0.8”. Besides, the pH in data set [3] (1% zirconium oxychloride with varied arginine, incubated 1 day at 50° C., cooled to room temperature) is 1.39. In addition, in data set [3] (zirconium oxychloride alone, general statement), the pH value is listed as below 2.

These data come from patent publication US20190185339A1, “Zirconium-Based Cluster as a Dentin Tubule Occlusion Agent” (Colgate-Palmolive Company, priority 2017, published 2019).
